One test has as its system Sprague Dawley (SD) rats. Put plainly: Oral glucose tolerance test in overnight fasted male Sprague Dawley rats. In kind it is in vivo, rat. To be noted: 60 min before oral glucose load 2 g/kg, versus vehicle control. The method, then: An oral glucose tolerance test is performed in overnight fasted male Sprague Dawley (SD) rats (RjHan:SD), with a weight of 320-350 g. A pre-dose blood sample is obtained by tail bleed. Blood glucose is measured with a glucometer, and the animals are randomized for blood glucose (n=6/group). Subsequently, the groups receive a single oral administration of either vehicle alone (0.5% aqueous hydroxyethyl-cellulose) or vehicle containing one of the PDE4 inhibitors. The animals receive an oral glucose load (2 g/kg) 60 min after compound administration. Blood glucose is measured in tail blood 15 min, 30 min, 60 min, 90 min, and 120 min after the glucose challenge. Glucose excursion is quantified by calculating the reactive glucose AUC (area under the curve). The data are presented as mean±SEM (standard error of mean). The two-sided unpaired Student t-test is used for statistical comparison of the control group and the active groups.
“Cpd. A” is the PDE4 inhibitor Example 1.35 at a dose of 1 and 3 mg/kg. “Cpd. B” is the PDE4 inhibitor Example 1.46 at a dose of 1 and 3 mg/kg. P values versus control are indicated by symbols above the bars (*, p<0.05). Cpd. A (=Example 1.35) reduces glucose excursion by 13.2 (p=0.09) and 15.0% (p=0.11) with a dose of 1 and 3 mg/kg, respectively. Cpd. […] Cpd.

The next test concerns the target T1, PDE4B (Homo sapiens, UniProt Q07343).
T1 construct: active site fragment comprising the amino acids 152-484
Put plainly: PDE4B Scintillation Proximity (SPA) Assay. Type of test: biochemical. To be noted: PDE4B active site fragment amino acids 152-484; [3H]cAMP; 30° C., one hour; read-out: Experimentally determined IC50-value for PDE4B inhibition. The source says:
The IC50-values of the compounds of the invention (Examples 1.1 to 1.47) with respect to their PDE4B-inhibiting ability have been determined with a Scintillation Proximity (SPA) Assay (GE Healthcare, No. TRKQ7090). The Scintillation Proximity (SPA) Assay is based on the detection of the different affinities of the cyclic 3′-5′adenosine monophosphate (cAMP, low affinity) and the linear 5′-adenosine monophosphate (AMP, high affinity) to yttrium-silicate-scintillator beads. The cAMP-specific phosphodiesterase (PDE) PDE4B cleaves the 3′-phosphodiester bond of the tritium-labelled-[^3H]cAMP to the [^3H]5′-AMP. This [^3H]5′-AMP associates with the scintillator beads because of their higher affinity and causes scintillations (light flashes) which can be measured in a Wallac Microbeta Scintillation Counter.
10 μl of a [^3H]cAMP-solution (0.05 μCi in H2O, 10-30 Ci/mmol) are added to 89 μl of a PDE4B-enzyme-solution (active site fragment comprising the amino acids 152-484; 0.15-0.18 ng) in assay buffer (50 mM Tris HCl pH 7.5; 8.3 mM MgCl2; 1,7 mM ethylene glyclol tetraacetic acid (EGTA); 0.25 mg/ml bovine serum albumin (BSA)) and this mixture is incubated at 30° C. for one hour
a) without the compound to be tested (in the presence of 1 μl dimethylsulfoxide (DMSO), corresponding to 1% DMSO) and b) in the presence of the compound to be tested in a concentration of 125 μM, 25 μM, 5 μM, 1 μM, 200 nM, 40 nM, 8 nM, 1.6 nM, 0.32 nM, 0.064 nM, 0.0128 nM (dilution series in 5er-steps beginning from 125 μM until 0.0128 nM, in the presence of 1% DMSO).
After this incubation the reaction is stopped by the addition of 50 μl of bead-solution (500 mg beads/35 ml H2O, 18 mM zinc sulfate). In the following 45 minutes the beads have the opportunity to form a sediment. After that the scintillations are measured in the scintillation counter. If the tested compound is able to inhibit the enzymatic activity of the PDE4B-enzyme, less [^3H]AMP depending on the concentration of the tested compound is produced and less scintillations are measurable. […] The IC50-value stands for the compound concentration at which the PDE4B enzyme activity is inhibited to a half maximal value. Therefore the lower the IC50-value is the better is the PDE4B inhibition.
A general note: SPA uses beads or plates that emit light when radiolabelled molecules are held near them.

Structures are written as SMILES. pIC50: −log10 of the molar value.

T1 sequence (Q07343 324-656): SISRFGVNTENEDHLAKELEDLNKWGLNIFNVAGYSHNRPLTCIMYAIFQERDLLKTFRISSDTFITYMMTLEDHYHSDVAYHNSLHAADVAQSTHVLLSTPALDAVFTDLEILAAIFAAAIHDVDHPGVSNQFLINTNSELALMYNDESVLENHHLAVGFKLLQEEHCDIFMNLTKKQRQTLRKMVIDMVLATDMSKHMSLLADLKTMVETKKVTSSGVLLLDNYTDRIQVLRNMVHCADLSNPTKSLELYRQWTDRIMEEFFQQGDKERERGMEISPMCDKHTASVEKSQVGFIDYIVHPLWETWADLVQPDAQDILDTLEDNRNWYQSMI

Take `[O-][S+]1CCc2nc(N3CCC(c4ncc(Cl)cn4)CC3)nc(NC3(CO)CCC3)c21` (centres unmarked) [Example 1.46, (1-{2-[4-(5-Chloro-pyrimidin-2-yl)-piperidin-1-yl]-5-oxo-6,7-dihydro-5H-5λ^4-thieno[3,2-d]pyrimidin-4-yl-amino}-cyclobutyl)-methanol]: the entries for the “reduces glucose excursion (reactive glucose AUC)” value in the test with Sprague Dawley (SD) rats (single oral dose 1 mg/kg) and in the test on Sprague Dawley (SD) rats (single oral dose 3 mg/kg) were 26.8% and 18.4%, respectively.
In general, pIC50 refers to −log10 of the IC50, conventionally taken in molar units. In the case of `[O-][S+]1CCc2nc(N3CCC(Oc4ccc(Cl)cc4)CC3)nc(NC3CCOCC3)c21` (centres unmarked) [Example 1.35, {2-[4-(4-chlorophenoxy)-piperidin-1-yl]-5-oxo-6,7-dihydro-5H-5λ^4-thieno[3,2-d]pyrimidin-4-yl}-(tetrahydropyran-4-yl)-amine], on PDE4B, the pIC50 is 8.41. The “reduces glucose excursion (reactive glucose AUC)” value is on record as 13.2% in the test with Sprague Dawley (SD) rats (single oral dose 1 mg/kg) and 15.0% in the test on Sprague Dawley (SD) rats (single oral dose 3 mg/kg).
